Data as given in patent US5767149A, “α-glycosyl-L-ascorbic acid, and it's preparation and uses” (priority 1989, dated 1998).

Legend:
physchem = assay type: physicochemical; conditions: for Remaining ratio: 0 min, 70 uM; for remaining at 0.25 h, 70 µM / remaining at 0.5 h, 70 µM / remaining at 1 h, 70 µM / remaining at 21 h, 70 µM: water
Description: (c) 2-O-α-D-Glucosyl-L-ascorbic acid was compared respectively to the 6-O-α-D-glucosyl-L-ascorbic acid disclosed in Japanese Patent Publication No. 38,158/73, and L-ascorbic acid for their stability in aqueous solution. More particularly, each sample was adjusted to a concentration of 70 micromoles and to pH 7.0 or 2.0, placed in a cuvette, and measured for its absorbance at either 260 nm and pH 7.0 or at 245 nm and pH 2.0 while keeping the solution at 20° C. The remaining ratio (%) was calculated with the absorbance.

Solubility in solvents = assay type: physicochemical
[1] = Coloring reaction: direct reducing activity on 2,6-dichlorophenolindophenol
α-glucosidase = assay: Hydrolysis by α-glucosidase; assay type: biochemical; conditions: forms L-ascorbic acid and D-glucose, molar ratio 1:1
Description: (§1) (a) Hydrolyzable by α-glucosidase or by treatment with 1N hydrochloric acid at 100° C. for 5 minutes to form L-ascorbic acid and D-glucose at a molar ratio of 1:1.

β-glucosidase = assay: Hydrolysis by β-glucosidase; assay type: biochemical
From the text: (b) Unhydrolyzable by β-glucosidase.

[2] = Hydrolysis by 1N hydrochloric acid at 100° C.; assay type: physicochemical; conditions: 5 minutes
Description: as §1

cytochrome C = assay: Reducing activity on cytochrome C; assay type: biochemical; conditions: for Reducing activity on cytochrome C: intact sample, 10 microliters of 10 mM, pH 7.8
human fibroblast cell = assay: Collagenic activity in human fibroblast cell; assay type: cell-based; conditions: 0.25 mM, 24 hours
Description: (b) Collagenic activity 2-O-α-D-Glucosyl-L-ascorbic acid, 6-O-α-D-glucosyl-L-ascorbic acid and L-ascorbic acid were tested for their collagenic activity. A human fibroblast cell, cell density of 7×10^4 cells/plate, was cultured in Eagle's minimal essential medium supplemented with 10% FCS for 1 week, added with 4 μCi/ml ^3 H-proline, 20 μg/ml of β-aminopropionitrile and 0.25 mM of either sample, and cultured for an additional 24 hours. The resultant was then added with 10 w/v % trichloroacetic acid to recover the collagenous element in the culture, followed by lyophilization. The resultant specimen was dissolved, and the solution was adjusted to an appropriate pH, treated with a collagenase (Type III) at 37° C. for 90 minutes, and centrifuged. Collagenic activity was estimated by determining the radio activity in the supernatant.

dd mice = assay: Acute toxicity, oral; assay type: in vivo, mouse
From the text: A high-purity α-D-glucosyl-L-ascorbic acid specimen, prepared by the method in Experiment 2(2), was orally administered to 7 week-old dd mice for acute toxicity test. As the result, no mouse died when administered with up to […] of the specimen, and higher dose was difficult.

Remaining ratio (physchem; pH 2) [%]	Remaining ratio (physchem; pH 7) [%]	remaining at 0.25 h, 70 µM (physchem; pH 2) [%]	remaining at 0.5 h, 70 µM (physchem; pH 2) [%]	remaining at 1 h, 70 µM (physchem; pH 2) [%]	remaining at 21 h, 70 µM (physchem; pH 2) [%]	remaining at 0.25 h, 70 µM (physchem; pH 7) [%]	remaining at 0.5 h, 70 µM (physchem; pH 7) [%]	remaining at 1 h, 70 µM (physchem; pH 7) [%]	remaining at 21 h, 70 µM (physchem; pH 7) [%]	SMILES	Reducing activity on cytochrome C (cytochrome C)	Collagenic activity (human fibroblast cell)	other results
100	100	99	98	91	55	58	36	17	8	O=C1O[C@H]([C@@H](O)CO[C@H]2O[C@H](CO)[C@@H](O)[C@H](O)[C@H]2O)C(O)=C1O [6-O-α-D-glucosyl-L-ascorbic acid]	unlike 6-O-α-D-glucosyl-L-ascorbic acid and L-ascorbic acid, 2-O-α-D-glucosyl-L-ascorbic acid exhibited no reducing activity	slightly inferior in collagenic activity to that of 2-O-α-D-glucosyl-L-ascorbic acid	
100	100	99	97	87	10	47	20	8	2	O=C1O[C@H]([C@@H](O)CO)C(O)=C1O [L-ascorbic acid]	unlike 6-O-α-D-glucosyl-L-ascorbic acid and L-ascorbic acid, 2-O-α-D-glucosyl-L-ascorbic acid exhibited no reducing activity		

SMILES	Remaining ratio (physchem; pH 2) [%]	Remaining ratio (physchem; pH 7) [%]	remaining at 0.25 h, 70 µM (physchem; pH 2) [%]	remaining at 0.5 h, 70 µM (physchem; pH 2) [%]	remaining at 1 h, 70 µM (physchem; pH 2) [%]	remaining at 21 h, 70 µM (physchem; pH 2) [%]	remaining at 0.25 h, 70 µM (physchem; pH 7) [%]	remaining at 0.5 h, 70 µM (physchem; pH 7) [%]	remaining at 1 h, 70 µM (physchem; pH 7) [%]	remaining at 21 h, 70 µM (physchem; pH 7) [%]	Reducing activity on cytochrome C (cytochrome C)	Collagenic activity (human fibroblast cell)	other results
O=C1O[C@H]([C@@H](O)CO)C(O)=C1O[C@H]1O[C@H](CO)[C@@H](O)[C@H](O)[C@H]1O [2-O-α-D-glucosyl-L-ascorbic acid]	100	100	100	100	100	100	100	100	100	100	no reducing activity	the same collagenic activity as that of L-ascorbic acid	Stability in aqueous solution (physchem): extremely stable in aqueous solution; Solubility (Solubility in solvents; 0.1N acetic acid): Readily soluble; Solubility (Solubility in solvents; 0.1N sodium hydroxide): Readily soluble; Solubility (Solubility in solvents; benzene): insoluble; Solubility (Solubility in solvents; chloroform): insoluble; Solubility (Solubility in solvents; ethanol): soluble; Solubility (Solubility in solvents; ether): insoluble; Solubility (Solubility in solvents; methanol): soluble; Solubility (Solubility in solvents; water): Readily soluble; Direct reducing activity (2,6-dichlorophenolindophenol) [1]: no direct reducing activity, and not reducing and decoloring 2,6-dichlorophenolindophenol; Hydrolysis by α-glucosidase (α-glucosidase): Hydrolyzable; Hydrolysis by β-glucosidase (β-glucosidase): Unhydrolyzable; Hydrolysis by acid [2]: Hydrolyzable; Reducing activity on cytochrome C after hydrolysis (cytochrome C; hydrolyzed by α-glucosidase specimen): exhibited a reducing activity; Highest dose administered without death (dd mice; 7 week-old dd mice, higher dose was difficult): ≥ 5 g; Mortality (dd mice; 7 week-old dd mice, up to 5 g): no mouse died; Toxicity (dd mice; dd mice): extremely low in toxicity
